By EC50 is commonly meant the concentration that produces a half-maximal response. In general, IC50 refers to the concentration that inhibits the measured activity by half. High values mean a need for much substance, low ones inhibition by little substance.

From patent US20260116868A1 (Arcus Biosciences, Inc., priority 2023, published 2026) come the findings set out here.

One experiment relates to Jurkat cells. Nature of the experiment: IL-2 secretion assay in Jurkat cells activated with CD3/CD28 T Cell Activator. Format: cell-based. The following applies: Homo sapiens; Jurkat cells, CD3/CD28 T Cell Activator, 24 h, IL-2 AlphaLISA; read-out: IL-2 Secretion (EC50). On the procedure: Certain compounds were also evaluated in an IL-2 secretion assay. On the day of the assay, a 16 point, 1:2 master serial dilution of each compound was prepared in Opti-MEM to span a final concentration range of 10 μM to 300 pM. Assays were set up in CORNING® tissue culture-treated 384-well microplates containing 60 nL of each dilution. Jurkat cells grown in RPMI-1640 supplemented with 10% FBS, 1% Glutamax, and 1% Pen/Strep were collected, resuspended in Opti-MEM. 50,000 cells/well and added to the compound plates. After a short spin (1200 rpm for 1 min), the plates were incubated at 37° C. for 1 hour. The cells were activated by adding 15 μL of IMMUNOCULT™ Human CD3/CD28 T Cell Activator (STEMCELL Technologies) diluted in Opti-MEM. After 24 h of incubation at 37° C., aliquots of culture supernatants were transferred to OptiPlate-384 (PerkinElmer) microplates. The level of IL-2 secretion in the supernatants was then determined using the IL-2 (human) AlphaLISA Detection Kit (PerkinElmer) according to the manufacturer's recommendations. The AlphaLISA signal was measured using an EnVision plate reader (PerkinElmer). EC50 values were determined by fitting the data to a standard 4-parameter logistic equation. See Table 7 for data for select compounds (IL-2 Secretion (EC50)).
(Bead proximity is the source of the signal in Alpha formats.)

In the next experiment the target is T1, Cbl-b (Homo sapiens, UniProt Q13191).
T1 construct: biotin (biotinylated protein)
Kind of experiment: Cbl-b probe displacement HTRF binding assay. The following applies: 0.4 nM Cbl-b, 150 nM BODIPY probe. In outline: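 Compound competes with BODIPY probe (150 nM) for biotinylated Cbl-b (0.4 nM) in HEPES/NaCl/Triton/TCEP/BSA buffer; 60 min preincubation, 15 min with probe, room temperature. Tb-streptavidin HTRF read; % displacement vs DMSO and no-protein controls, IC50 from four-parameter fit.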

T1 sequence (Q13191 whole entry, species assumed): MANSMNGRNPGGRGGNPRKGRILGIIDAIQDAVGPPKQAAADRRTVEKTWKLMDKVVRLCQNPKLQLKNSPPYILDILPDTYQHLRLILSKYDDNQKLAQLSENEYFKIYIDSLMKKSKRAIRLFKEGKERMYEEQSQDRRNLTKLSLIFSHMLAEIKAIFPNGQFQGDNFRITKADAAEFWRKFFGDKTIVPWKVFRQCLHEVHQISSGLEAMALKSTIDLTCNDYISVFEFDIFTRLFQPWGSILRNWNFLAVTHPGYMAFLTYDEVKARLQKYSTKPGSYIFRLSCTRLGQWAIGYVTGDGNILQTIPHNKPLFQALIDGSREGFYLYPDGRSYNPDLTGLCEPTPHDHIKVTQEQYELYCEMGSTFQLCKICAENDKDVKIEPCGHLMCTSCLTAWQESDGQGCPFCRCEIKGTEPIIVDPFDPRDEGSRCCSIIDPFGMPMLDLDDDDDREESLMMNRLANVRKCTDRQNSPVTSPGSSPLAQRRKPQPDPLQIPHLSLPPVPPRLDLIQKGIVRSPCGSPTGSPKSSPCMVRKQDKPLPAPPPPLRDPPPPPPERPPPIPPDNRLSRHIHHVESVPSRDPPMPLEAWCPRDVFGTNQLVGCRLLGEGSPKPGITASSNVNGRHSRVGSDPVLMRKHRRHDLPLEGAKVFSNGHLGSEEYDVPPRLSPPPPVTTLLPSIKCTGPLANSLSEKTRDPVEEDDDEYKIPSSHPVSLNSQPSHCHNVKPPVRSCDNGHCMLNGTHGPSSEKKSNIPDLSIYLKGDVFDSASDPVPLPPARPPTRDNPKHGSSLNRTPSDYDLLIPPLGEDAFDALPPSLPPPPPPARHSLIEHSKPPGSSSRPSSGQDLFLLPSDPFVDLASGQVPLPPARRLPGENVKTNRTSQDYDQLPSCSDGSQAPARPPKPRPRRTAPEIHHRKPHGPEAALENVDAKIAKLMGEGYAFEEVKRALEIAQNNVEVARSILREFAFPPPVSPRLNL

As for `CO[C@@H](C)CNCc1cc(C(=O)Nc2cc(-c3ccc(F)cc3-c3nncn3C)cc(C3CC3)n2)c(=O)n(C2CC2)c1` [Example 17, N-{6-cyclopropyl-4-[4-fluoro-2-(4-methyl-4H-1,2,4-triazol-3-yl)phenyl]-2-pyridyl}-5-{[(S)-2-methoxypropylamino]methyl}-1-cyclopropyl-2-oxo-1,2-dihydronicotinamide], in the experiment with Jurkat cells, the EC50 is < 100 nM. The concentration for half-maximal inhibition (IC50) at Cbl-b is < 100 nM.

Take `COC[C@H](C)NCc1cc(C(=O)Nc2cc(-c3ccc(F)cc3-c3nncn3C)cc(C3CC3)n2)c(=O)n(C2CC2)c1` [Example 18, N-{6-cyclopropyl-4-[4-fluoro-2-(4-methyl-4H-1,2,4-triazol-3-yl)phenyl]-2-pyridyl}-5-{[(S)-2-methoxy-1-methylethylamino]methyl}-1-cyclopropyl-2-oxo-1,2-dihydronicotinamide]: in the experiment with Jurkat cells, the EC50 is < 100 nM. Also, the concentration for half-maximal inhibition (IC50) on Cbl-b is < 100 nM.

Take `COC(F)(F)CNCc1cc(C(=O)Nc2cc(-c3ccc(F)cc3-c3nncn3C)cc(C3CC3)n2)c(=O)n(C2CC2)c1` [Example 19, N-{6-cyclopropyl-4-[4-fluoro-2-(4-methyl-4H-1,2,4-triazol-3-yl)phenyl]-2-pyridyl}-1-cyclopropyl-5-[(2,2-difluoro-2-methoxyethylamino)methyl]-2-oxo-1,2-dihydronicotinamide]: in the experiment with Jurkat cells, the EC50 lay within 100 to 1000 nM. Moreover, the IC50 at Cbl-b is < 100 nM.

Regarding `CO[C@H](C)CNCc1cc(C(=O)Nc2cc(-c3ccc(F)cc3-c3nncn3C)cc(C3CC3)n2)c(=O)n(C2CC2)c1` [Example 20, N-{6-cyclopropyl-4-[4-fluoro-2-(4-methyl-4H-1,2,4-triazol-3-yl)phenyl]-2-pyridyl}-5-{[(R)-2-methoxypropylamino]methyl}-1-cyclopropyl-2-oxo-1,2-dihydronicotinamide], in the experiment on Jurkat cells, the half-maximal effective concentration (EC50) is < 100 nM. Besides, the IC50 at Cbl-b was < 100 nM.

Regarding `COC[C@@H](C)NCc1cc(C(=O)Nc2cc(-c3ccc(F)cc3-c3nncn3C)cc(C3CC3)n2)c(=O)n(C2CC2)c1` [Example 21, N-{6-cyclopropyl-4-[4-fluoro-2-(4-methyl-4H-1,2,4-triazol-3-yl)phenyl]-2-pyridyl}-5-{[(R)-2-methoxy-1-methylethylamino]methyl}-1-cyclopropyl-2-oxo-1,2-dihydronicotinamide], in the experiment on Jurkat cells, the concentration for a half-maximal effect (EC50) was < 100 nM. Besides, the IC50 on Cbl-b was < 100 nM.

In the case of `CO[C@@H]1CCN(Cc2cc(C(=O)Nc3cc(-c4ccc(F)cc4-c4nncn4C)cc(C4CC4)n3)c(=O)n(C3CC3)c2)C1` [Example 22, N-{6-cyclopropyl-4-[4-fluoro-2-(4-methyl-4H-1,2,4-triazol-3-yl)phenyl]-2-pyridyl}-5-{[(R)-3-methoxy-1-pyrrolidinyl]methyl}-1-cyclopropyl-2-oxo-1,2-dihydronicotinamide], the half-maximal effective concentration (EC50) in the experiment with Jurkat cells lay in the range of 100 to 1000 nM. On Cbl-b, the IC50 is < 100 nM.

On to `CO[C@@H](C)[C@H](C)NCc1cc(C(=O)Nc2cc(-c3ccc(F)cc3-c3nncn3C)cc(C3CC3)n2)c(=O)n(C2CC2)c1` [Example 23, N-{6-cyclopropyl-4-[4-fluoro-2-(4-methyl-4H-1,2,4-triazol-3-yl)phenyl]-2-pyridyl}-5-{[(1S,2S)-2-methoxy-1-methylpropylamino]methyl}-1-cyclopropyl-2-oxo-1,2-dihydronicotinamide], for which the EC50 in the experiment on Jurkat cells is < 100 nM. The half-inhibitory concentration (IC50) at Cbl-b was < 100 nM.

For the compound `Cn1cnnc1-c1cc(F)ccc1-c1cc(NC(=O)c2cc(CNCC3(F)CCC3)cn(C3CC3)c2=O)nc(C2CC2)c1` [Example 24, N-{6-cyclopropyl-4-[4-fluoro-2-(4-methyl-4H-1,2,4-triazol-3-yl)phenyl]-2-pyridyl}-1-cyclopropyl-5-({[(1-fluorocyclobutyl)methyl]amino}methyl)-2-oxo-1,2-dihydronicotinamide], the concentration for a half-maximal effect (EC50) with Jurkat cells was < 100 nM. Also, the half-maximal inhibitory concentration (IC50) at Cbl-b is < 100 nM.

As for `CO[C@H]1CCCN(Cc2cc(C(=O)Nc3cc(-c4ccc(F)cc4-c4nncn4C)cc(C4CC4)n3)c(=O)n(C3CC3)c2)C1` [Example 25, N-{6-cyclopropyl-4-[4-fluoro-2-(4-methyl-4H-1,2,4-triazol-3-yl)phenyl]-2-pyridyl}-5-{[(S)-3-methoxy-1-piperidyl]methyl}-1-cyclopropyl-2-oxo-1,2-dihydronicotinamide], the EC50 in the experiment on Jurkat cells fell in the range of 100 to 1000 nM. For the same compound, the IC50 on Cbl-b is < 100 nM.

For `COC1CN(Cc2cc(C(=O)Nc3cc(-c4ccc(F)cc4-c4nncn4C)cc(C4CC4)n3)c(=O)n(C3CC3)c2)C1` [Example 26, N-{6-cyclopropyl-4-[4-fluoro-2-(4-methyl-4H-1,2,4-triazol-3-yl)phenyl]-2-pyridyl}-1-cyclopropyl-5-[(3-methoxy-1-azetidinyl)methyl]-2-oxo-1,2-dihydronicotinamide], the EC50 in the experiment with Jurkat cells was 100 to 1000 nM. Also, the IC50 on Cbl-b was < 100 nM.

As for `Cn1cnnc1-c1cc(F)ccc1-c1cc(NC(=O)c2cc(-c3cc[nH]n3)cn(C3CC3)c2=O)nc(C2CC2)c1` [Example 27, N-{6-Cyclopropyl-4-[4-fluoro-2-(4-methyl-4H-1,2,4-triazol-3-yl)phenyl]-2-pyridyl}-1-cyclopropyl-2-oxo-5-(3-pyrazolyl)-1,2-dihydronicotinamide], in the experiment on Jurkat cells, the concentration giving a half-maximal response (EC50) is > 5000 nM. Also, the IC50 on Cbl-b was 100 to 1000 nM.

With `Cn1cnnc1-c1cc(F)ccc1-c1cc(NC(=O)c2cc(-c3cccc(N)c3)cn(C3CC3)c2=O)nc(C2CC2)c1` [Example 28, N-{6-Cyclopropyl-4-[4-fluoro-2-(4-methyl-4H-1,2,4-triazol-3-yl)phenyl]-2-pyridyl}-5-(m-aminophenyl)-1-cyclopropyl-2-oxo-1,2-dihydronicotinamide], the 50% effective concentration (EC50) with Jurkat cells was > 5000 nM. Also, on Cbl-b, the half-maximal inhibitory concentration (IC50) was in the range of 100 to 1000 nM.

As to `Cn1cnnc1-c1cc(F)ccc1-c1cc(NC(=O)c2cc(C3CC3)cn(C3CC3)c2=O)nc(C2CC2)c1` [Example 29, N-{6-Cyclopropyl-4-[4-fluoro-2-(4-methyl-4H-1,2,4-triazol-3-yl)phenyl]-2-pyridyl}-1-cyclopropyl-5-cyclopropyl-2-oxo-1,2-dihydronicotinamide], the EC50 in the experiment on Jurkat cells fell in the range of 1000 to 5000 nM. On Cbl-b, this compound registered a concentration for half-maximal inhibition (IC50) of 100 to 1000 nM.

Regarding `Cn1cnnc1-c1cc(F)ccc1-c1cc(NC(=O)c2cc(C3CCNC3)cn(C3CC3)c2=O)nc(C2CC2)c1` (centres unmarked) [Example 30, N-{6-Cyclopropyl-4-[4-fluoro-2-(4-methyl-4H-1,2,4-triazol-3-yl)phenyl]-2-pyridyl}-1-cyclopropyl-2-oxo-5-(3-pyrrolidinyl)-1,2-dihydronicotinamide], the concentration for a half-maximal effect (EC50) in the experiment with Jurkat cells is > 5000 nM. Also, the half-maximal inhibitory concentration (IC50) on Cbl-b was 100 to 1000 nM.

Take `Cn1cnnc1-c1cc(F)ccc1-c1cc(NC(=O)c2cc(C3CCNC3)cn(CC3CC3)c2=O)nc(C2CC2)c1` (centres unmarked) [Example 31, N-[6-cyclopropyl-4-[4-fluoro-2-(4-methyl-1,2,4-triazol-3-yl)phenyl]pyridin-2-yl]-1-(cyclopropylmethyl)-2-oxo-5-pyrrolidin-3-ylpyridine-3-carboxamide]: the 50% effective concentration (EC50) in the experiment on Jurkat cells was > 5000 nM. On Cbl-b, this compound returned an IC50 of 100 to 1000 nM.

Turning to `CN(C)Cc1c[nH]c(=O)c(C(=O)Nc2cc(-c3ccc(F)cc3-c3nncn3C)cc(C3CC3)n2)c1` [Example 32, N-{6-Cyclopropyl-4-[4-fluoro-2-(4-methyl-4H-1,2,4-triazol-3-yl)phenyl]-2-pyridyl}-5-[(dimethylamino)methyl]-2-oxo-1,2-dihydronicotinamide], the EC50 in the experiment with Jurkat cells lay within 1000 to 5000 nM. Further, the IC50 at Cbl-b was < 100 nM.

For the compound `CN(C)Cc1cc(C(=O)Nc2cc(-c3ccc(F)cc3-c3nncn3C)cc(C3CC3)n2)c(=O)n(C2CC2)c1` [Example 33, N-{6-Cyclopropyl-4-[4-fluoro-2-(4-methyl-4H-1,2,4-triazol-3-yl)phenyl]-2-pyridyl}-1-cyclopropyl-5-[(dimethylamino)methyl]-2-oxo-1,2-dihydronicotinamide], the 50% effective concentration (EC50) with Jurkat cells was 100 to 1000 nM. The IC50 at Cbl-b was < 100 nM.

As for `C=CCn1cc(CN(C)C)cc(C(=O)Nc2cc(-c3ccc(F)cc3-c3nncn3C)cc(C3CC3)n2)c1=O` [Example 34, N-{6-Cyclopropyl-4-[4-fluoro-2-(4-methyl-4H-1,2,4-triazol-3-yl)phenyl]-2-pyridyl}-1-allyl-5-[(dimethylamino)methyl]-2-oxo-1,2-dihydronicotinamide], the half-maximal effective concentration (EC50) with Jurkat cells fell in the range of 1000 to 5000 nM. On Cbl-b, the IC50 was < 100 nM.

For `C[C@H]1CCCN(Cc2cc(C(=O)Nc3cc(-c4ccc(C#N)cc4-c4nccn4C)cc(Cl)n3)c(=O)n(C3CC3)c2)C1` [Example 35, N-{6-chloro-4-[4-cyano-2-(1-methyl-2-imidazolyl)phenyl]-2-pyridyl}-5-{[(S)-3-methyl-1-piperidyl]methyl}-1-cyclopropyl-2-oxo-1,2-dihydronicotinamide], the EC50 in the experiment on Jurkat cells was 100 to 1000 nM. Further, on Cbl-b, the IC50 was < 100 nM.
